From patent US20240043384A1, “INHIBITORS OF PU.1 FOR THE TREATMENT OF DISEASE” (Board of Regents, The University of Texas System, priority 2021, published 2024)

Each compound was assayed on THP-1 CD14 (assay: THP-1 CD14 Screening Assay). Conditions: Homo sapiens, THP-1, 72 h, THP-1 cells treated with PMA and compound (5-point 10-fold dilution), human CD14 ELISA on media.
Type: cell-based
Experimental: THP-1 CD14 Screening Assay Protocol:
5×10^4 THP-1 cells were plated per well in a tissue culture-treated 96-well plate. At the time of plating, cells were treated with a final concentration of […] PMA and 0.04% DMSO vehicle, concominant with compounds in a 5-point 10-fold dilution per compound. Cells were treated with PMA and DMSO as a control for differentiation without compound treatment, and with only DMSO as a control for no differentiation and no compound treatment. 500 nM IACS-71432 was added as a control compound across all assay plates.
After incubation at 37° C./5% CO2 for 72 hr, media was collected from the cells and the screening assay was performed using the commercially-available human CD14 SimpleStep ELISA kit from Abcam, according to the following protocol: • 1) ELISA kits were taken out to equilibrate to rt. • 2) Following the protocol listed in the kit, standards were prepared as 1:1 dilutions from 2 ng/ml. • 3) Following the protocol listed in the kit, antibody cocktail was prepared (the volume is contingent on the number of wells required). • 4) 50 μl of standards were added to the appropriate wells, thoroughly mizing the standards before adding to each well. • 5) 25 μl of Sample Diluent (from kit) was added to all sample wells. • 6) Cell plates were centrifuged for 5 min at 300 rcf, with slow acceleration and slow deceleration. • 7) 25 μl of media from cell plates was transferred to assay plates containing standards. • 8) 50 μl of antibody cocktail was added to all of the wells, standards and samples. • 9) Assay plates were sealed tightly and incubated on the plate shaker at 400 rpm for 1 hr at rt. • 10) Wash buffer was prepared following the protocol listed in the kit. • 11) After the hour incubation, assay plates were washed 5 times using 200 μl wash buffer per well per wash. • 12) 100 μl of TMB substrate was added to each well in the dark and incubated on the shaker for 3-4.min, at which point color development was monitored to ensure a robust signal for detection but to avoid oversaturation of signal, for no longer than 10 min. • 13) The absorbance at 607 nm was read on a Perkin Elmer Envision plate reader. • 14) Data was processed using Microsoft Excel and GraphPad Prism.
With `CC(=O)Nc1cc(CNS(=O)(=O)c2ccc(C3CCCCC3)cc2)ccn1` [Example 10, N-(4-(((4-cyclohexylphenyl)sulfonamido)methyl)pyridin-2-yl)acetamide] the IC50 was 5 to 100 nM.
In the case of `Cn1ncc2c(NS(=O)(=O)c3ccc(C4CCCCC4)cc3)cccc21` [Example 63, 4-cyclohexyl-N-(1-methyl-1H-indazol-4-yl)benzenesulfonamide], the IC50 is reported as under 5 nM.
`O=c1[nH]c2cc(-c3ccc(S(=O)(=O)NCc4ccncc4)cc3)ccc2o1` [Example 61, 4-(2-oxo-2,3-dihydro-benzo[d]oxazol-5-yl)-N-(pyridin-4-ylmethyl)-benzenesulfonamide] showed an IC50 of 5 to 100 nM.
`O=S(=O)(NCc1ccncc1)c1ccc(-c2ccc3cccnc3c2)cc1` [Example 52, N-(pyridin-4-ylmethyl)-4-(quinolin-7-yl)benzenesulfonamide] was tested, and the IC50 was under 5 nM.
`O=S(=O)(NCc1ccnc(F)c1)c1ccc(C2CCCCC2)cc1` [Example 8, 4-cyclohexyl-N-((2-fluoropyridin-4-yl)methyl)benzenesulfonamide] gave an IC50 of under 5 nM.
For `O=S(=O)(NCc1ccncc1)c1ccc(C2CCC(F)(F)CC2)cc1` [Example 15, 4-(4,4-difluorocyclohexyl)-N-(pyridin-4-ylmethyl)-benzenesulfonamide], the IC50 was under 5 nM.
`Cn1ncc2cc(-c3ccc(S(=O)(=O)NCc4ccncc4)cc3)ccc21` [Example 44, 4-(1-methyl-1H-indazol-5-yl)-N-(pyridin-4-ylmethyl)-benzenesulfonamide] gave an IC50 of under 5 nM.
`O=C1NCc2ccc(-c3ccc(S(=O)(=O)NCc4ccncc4)cc3)cc21` [Example 57, 4-(3-oxoisoindolin-5-yl)-N-(pyridin-4-ylmethyl)-benzenesulfonamide] was tested, and the IC50 was 5 to 100 nM.
Compound `CC1(C)CCC(c2ccc(S(=O)(=O)NCc3ccncc3)cc2)CC1` [Example 20, 4-(4,4-dimethyl-cyclohexyl)-N-(pyridin-4-ylmethyl) benzenesulfonamide] has an IC50 of under 5 nM.
Compound `O=S1(=O)CCC(c2ccc(S(=O)(=O)NCc3ccncc3)cc2)CC1` [Example 18, 4-(1,1-dioxotetrahydro-2H-thiopyran-4-yl)-N-(pyridin-4-ylmethyl)-benzenesulfonamide] has an IC50 of over 500 nM.
With `O=S(=O)(NCc1ccncc1)c1ccc(C2CCCC2)cc1` [Example 2, 4-cyclopentyl-N-(pyridin-4-ylmethyl)benzenesulfonamide] the IC50 was under 5 nM.
`O=C1NCCc2ccc(-c3ccc(S(=O)(=O)NCc4ccncc4)cc3)cc21` [Example 56, 4-(1-oxo-1,2,3,4-tetrahydroisoquinolin-7-yl)-N-(pyridin-4-ylmethyl)-benzenesulfonamide] showed an IC50 of 5 to 100 nM.
With `O=S(=O)(NCc1ccncc1)c1ccc(-c2ccc3c(c2)OCCO3)cc1` [Example 55, 4-(2,3-dihydrobenzo[b]-[1,4]dioxin-6-yl)-N-(pyridin-4-ylmethyl)-benzenesulfonamide] the IC50 was under 5 nM.
Compound `O=S(=O)(NCc1ccncc1)c1ccc(-c2cccc(Cl)n2)cc1` [Example 5, 4-(6-chloropyridin-2-yl)-N-(pyridin-4-ylmethyl)benzenesulfonamide] has an IC50 of 100 to 500 nM.
`O=S(=O)(NCc1ccncc1)c1ccc(-c2ccc3c(c2)OCO3)cc1` [Example 53, 4-(benzo[d][1,3]dioxol-5-yl)-N-(pyridin-4-ylmethyl)-benzenesulfonamide] was tested, and the IC50 was under 5 nM.
In the case of `Cc1ccnc(-c2ccc(S(=O)(=O)NCc3ccncc3)cc2)c1` [Example 41, 4-(4-methylpyridin-2-yl)-N-(pyridin-4-ylmethyl)-benzenesulfonamide], the IC50 is reported as under 5 nM.
`CC1CCN(c2ccc(S(=O)(=O)NCc3ccncc3)cc2)C1` (centres unmarked) [Example 28, 4-(3-methylpyrrolidin-1-yl)-N-(pyridin-4-ylmethyl)-benzenesulfonamide] gave an IC50 of 5 to 100 nM.
With `O=S(=O)(NCc1ccncc1)c1ccc(N2CCC3(CC2)CC3)cc1` [Example 35, N-(pyridin-4-ylmethyl)-4-(6-azaspiro[2.5]octan-6-yl)-benzenesulfonamide] the IC50 was under 5 nM.
In the case of `O=S(=O)(NCc1ccncc1)c1ccc(-c2cccnc2)cc1` [Example 4, 4-(pyridin-3-yl)-N-(pyridin-4-ylmethyl)benzenesulfonamide], the IC50 is reported as 100 to 500 nM.
With `O=S(=O)(NCc1ccncc1)c1ccc(N2CCCC(F)C2)cc1` (centres unmarked) [Example 30, 4-(3-fluoropiperidin-1-yl)-N-(pyridin-4-ylmethyl)-benzenesulfonamide] the IC50 was 5 to 100 nM.
In the case of `O=S(=O)(NCc1ccncc1)c1ccc(C2CCOCC2)cc1` [Example 16, N-(pyridin-4-ylmethyl)-4-(tetrahydro-2H-pyran-4-yl)-benzenesulfonamide], the IC50 is reported as under 5 nM.
`CC(=O)N1CCC(c2ccc(S(=O)(=O)NCc3ccncc3)cc2)C1` (centres unmarked) [Example 21, 4-(1-acetylpyrrolidin-3-yl)-N-(pyridin-4-ylmethyl)-benzenesulfonamide] showed an IC50 of over 500 nM.
With `O=S(=O)(NCc1ccncc1)c1ccc(N2CCC(F)(F)CC2)cc1` [Example 23, 4-(4,4-difluoropiperidin-1-yl)-N-(pyridin-4-ylmethyl)-benzenesulfonamide] the IC50 was 5 to 100 nM.
`CC1(C)CCN(c2ccc(S(=O)(=O)NCc3ccncc3)cc2)CC1` [Example 36, 4-(4,4-dimethylpiperidin-1-yl)-N-(pyridin-4-ylmethyl)-benzenesulfonamide] showed an IC50 of under 5 nM.
`O=S(=O)(NCc1ccncc1)c1ccc(-c2ccc3ccoc3c2)cc1` [Example 51, 4-(benzofuran-6-yl)-N-(pyridin-4-ylmethyl)-benzenesulfonamide] showed an IC50 of under 5 nM.
`CN1CCN(c2ccc(S(=O)(=O)NCc3ccncc3)cc2)CC1` [Example 3, 4-(4-methylpiperazin-1-yl)-N-(pyridin-4-ylmethyl)benzenesulfonamide] was tested, and the IC50 was 100 to 500 nM.
`O=S(=O)(NCc1ccncc1)c1ccc(-c2ccc3ncnc(O)c3c2)cc1` [Example 54, 4-(4-hydroxyquinazolin-6-yl)-N-(pyridin-4-ylmethyl)-benzenesulfonamide] showed an IC50 of 100 to 500 nM.
`O=S(=O)(NCc1ccncc1)c1ccc(-c2ccncc2)cc1` [Example 38, 4-(pyridin-4-yl)-N-(pyridin-4-ylmethyl)benzenesulfonamide] showed an IC50 of 5 to 100 nM.

Same assay, conditions: THP-1 cells treated with PMA and compound (5-point 10-fold dilution), 72 hr; human CD14 ELISA on media
With `Cc1nc2cc(-c3ccc(S(=O)(=O)NCc4ccncc4)cc3)ccc2s1` [49 (b), 4-(2-methyl-benzo[d]thiazol-5-yl)-N-(pyridin-4-ylmethyl)-benzenesulfonamide] the IC50 was 100 to 500 nM.
